{"source": "patent EP4623912A1", "about": "“A METHOD FOR DEFATTENING A STEATOTIC LIVER EX VIVO” (ETH Zurich, priority 2024, dated 2025)", "key": {"C57BL/6N male mice": {"test_system": "C57BL/6N male mice", "experiment": "Glucose deprivation by 2-DG injection in mice", "assay_type": "in vivo, mouse", "method": "All animal experiments were permitted by the Veterinary office of the Canton of Zurich. Both female and male mice were used in the experiments, and they were housed 2-5 littermates per cage in ventilated cages at standard housing conditions (22°C, 12 h reversed light/dark cycle, dark phase starting at 7 am) with normal chow diet (18% proteins, 4.5% fibers, 4.5% fat, 6.3% ashes, Provimi Kliba SA) and water. Health status of all the mouse lines were monitored regularly based on FELASA guidelines. 8-10 weeks old C57BL/6N male mice were fasted for 24 h or injected with 2-DG (2 g/kg BW) to induce glucose deprivation for different durations. Female ROSA26-LSL-spCas9 mice (The Jackson Lab strain) were intravenously injected with AAV8-U6-Pi4kb gRNAs-TBG-Cre, AAV8-U6-Sacm1l gRNAs-TBG-Cre, AAV8-U6-Cu/7 gRNAs-TBG-Cre and AAV8-U6-Fbxw8 gRNAs-TBG-Cre virus pools to express six gRNAs targeting individual gene and CAS9 in the liver at a dose of 3×10^11 genome copies/mouse. Two weeks later, livers were harvested for protein and RNA extraction after 6 hours fasting. To determine liver TG levels under NCD feeding condition, 4 weeks after AAV administration livers were harvested after 6 hours fasting. Also 4 weeks after AAV administration, the liver specific Cul7&Fbxw8 double knockout mice were injected with 2-DG (2 g/kg BW) to induce 1 hour glucose deprivation prior to liver harvesting for protein extraction.\nAdipose depots, liver pieces, differentiated iBAs, HepG2, HEK293T and HEK293-AAV cell types were homogenized in RIPA buffer (50 mM Tris-HCl pH 7.4, 150 mM NaCl, 2 mM EDTA, 1.0% Triton X100, 0.5% sodium deoxycholate) with protease inhibitors (Complete, Roche) and phosphatase inhibitors (Halt phosphatase inhibitor cocktail, ThermoFisher). The homogenates were centrifuged at 12,000×g for 10 min at 4°C to remove debris and collect whole cell extract (WCE). The concentration of WCE was determined by DC Protein Assay (Bio-Rad). After boiling the sample with Lämmeli buffer at 95°C for 5 min, equal amount of proteins was loaded and separated on 12% SDS-PAGE. The proteins were transferred to nitrocellulose membrane and blotted by ATGL (1:1000, Cell Signaling), CGI-58 (1:1000, Proteintech), phospho-HSL(Ser660) (1:1000, Cell Signaling), PLIN1 (1:1000, Cell Signaling), HSL (1:1000, Cell Signaling), γ-tubulin (1:10000, Sigma), FLAG (1:10000, Sigma; 1:1000, Cell Signaling), MGL (1:1000, Abcam), HA (1:1000, Cell signaling), FBXW8 (1:100, Santa Cruz; 1:1000, Sigma), CUL7 (1:100, Santa Cruz), HSP90 (1:1000, Cell Signaling), K48 polyubiquitin (1:1000, Cell signaling), PI4KB (1:1000, Sigma), SACM1L (1:1000, Sigma), AKT1 (1:1000, Cell Signaling), phospho-AKT1(Ser473) (1:1000, Cell Signaling), TGN46 (1:1000, Abcam), MAOA (1:1000, Abcam), PLIN2 (1:1000, Abcam), PMP70 (1:10000, Sigma), Calnexin (1:1000, Cell Signaling), ARF1 (1:1000, Invitrogen), GAPDH (1:1000, Cell Signaling), RAB7 (1:1000, Cell Signaling), alpha 1 Sodium Potassium ATPase (1:1000, Abcam), Cleaved Caspase-3 (1:1000, Cell Signaling), phospho-AMPKα (Thr172) (1:1000, Cell Signaling), AMPKα (1:1000, Cell Signaling) and GM130 (1:1000, Proteintech). The primay antibody signal was visualized by HRP-conjugated secondary antibodies (1:5000, Millipore) and the ImageQuant system (GE Healthcare Life Sciences).\nFor mouse insulin measurement, plasma was collected at different timepoints after 2-DG administration in wild type mice. 5 µl plasma sample was used to determine insulin levels via Ultra-sensitive mouse insulin ELISA kit (Crystal Chem, Cat# 90080) according to the manufacturer's protocol. The absorbance was measured via Synergy Gen5 Platereader at 450/630 nm. 2 µl plasma sample was used to determine glucose levels via Glucose Assay Kit (Sigma, MAK263) according to the manufacturer's protocol. The absorbance was read at 570 nm in Synergy Gen5 Platereader.\nPlasma collected from mice under different conditions was used to determine levels of lipolysis and liver injury. […]"}, "ATGL [1]": {"test_system": "ATGL", "experiment": "ATGL in HepG2 cells after 2-DG treatment", "assay_type": "cell-based, human", "method": "HepG2 cell type was cultured in RPMI medium with 10% FBS and 1% Pen/Strep on collagen-coated plates. Lipofectamine RNAiMAX reagent mediated siRNA (100 nM) was delivered to cells at the suspended state for 48 h. Different from HEK cells, it is not necessary to induce LDs via OA treatment in that there exist LDs in the HepG2 cell type at normal culture medium. The inventors treated HepG2 cells with 10 µM PF04620110 (DGAT1 inhibitor, Sigma) & PF-06424439 (DGAT2 inhibitor, Sigma) for 48 hours or with 5 µg/mL BFA (B5936, Sigma) for 6 hours to deplete LDs and intact Golgi in the HepG2 cell type respectively before glucose deprivation. […]\nTotal RNA was extracted from adipose depots, liver or in vitro cell cultures via Trizol reagent (Invitrogen) according to the manufacturer's instructions. […] Quantitative PCR was performed using KAPA SYBR FAST Universal kit (Roche, KK4618) on ViiA7 (Applied Biosystems) and the relative transcript levels were normalized to […] expression via ΔΔCt method. […]\n(§1) Adipose depots, liver pieces, differentiated iBAs, HepG2, HEK293T and HEK293-AAV cell types were homogenized in RIPA buffer (50 mM Tris-HCl pH 7.4, 150 mM NaCl, 2 mM EDTA, 1.0% Triton X100, 0.5% sodium deoxycholate) with protease inhibitors (Complete, Roche) and phosphatase inhibitors (Halt phosphatase inhibitor cocktail, ThermoFisher). […] The concentration of WCE was determined by DC Protein Assay (Bio-Rad). […]"}, "ATGL [2]": {"test_system": "ATGL", "experiment": "Block of proteasome mediated degradation, cellular ATGL protein", "assay_type": "cell-based", "conditions": "proteasome blocked; Chloroquine (autophagy) had no such effect"}, "ATGL [3]": {"test_system": "ATGL", "experiment": "ATGL response to glucose deprivation in HepG2 cells after BFA treatment", "assay_type": "cell-based, human", "conditions": "HepG2, 5 µg/mL BFA for 6 hours before glucose deprivation", "method": "HepG2 cell type was cultured in RPMI medium with 10% FBS and 1% Pen/Strep on collagen-coated plates. Lipofectamine RNAiMAX reagent mediated siRNA (100 nM) was delivered to cells at the suspended state for 48 h. Different from HEK cells, it is not necessary to induce LDs via OA treatment in that there exist LDs in the HepG2 cell type at normal culture medium. The inventors treated HepG2 cells with 10 µM PF04620110 (DGAT1 inhibitor, Sigma) & PF-06424439 (DGAT2 inhibitor, Sigma) for 48 hours or with 5 µg/mL BFA (B5936, Sigma) for 6 hours to deplete LDs and intact Golgi in the HepG2 cell type respectively before glucose deprivation. To deprive glucose in the HepG2 cell type, we either added 2-DG at indicated concentrations to the culture medium or refresh cells with RPMI medium containing different glucose concentrations prepared from the same RPMI medium (Gibco, 11879020).\nas §1"}, "[4]": {"conditions": "only 1 hour after 2-DG administration"}}, "note": "Where a SMILES comes first, the peptide text is derived from it. The star is where a group is joined. Cbz = O=C(OCc1ccccc1)*"}
{"smiles": "O=CC[C@@H](O)[C@H](O)[C@H](O)CO", "note": "[2-DG, 2-Deoxy-D-glucose]", "values": [{"measurement": "lipolysis (plasma FFA levels)", "setting": "C57BL/6N male mice; 2-DG 2 g/kg BW, 1 h, 6 h, 12 h (Fig. 1c)", "result": "significantly induced"}, {"measurement": "ATGL levels in livers of wild-type mice", "setting": "C57BL/6N male mice; 2-DG for 1 hour, not in Cul7 and Fbxw8 double knockout (Fig. 6c)", "result": "upregulation"}, {"measurement": "ATGL protein levels in the liver and iBAT", "setting": "C57BL/6N male mice; 1 hour after 2-DG", "result": "increased"}, {"measurement": "ATGL protein levels in the liver, iBAT, iWAT and gWAT", "setting": "C57BL/6N male mice; longer glucose deprivation (6 h, 12 h after 2-DG)", "result": "further accumulation"}, {"measurement": "HSL phosphorylation in white adipose tissues", "setting": "C57BL/6N male mice; [4]", "result": "upregulation"}, {"measurement": "plasma insulin levels", "setting": "C57BL/6N male mice; [4]", "result": "reduction"}, {"measurement": "ATGL protein abundance", "setting": "ATGL [1]; HepG2, 50 mM 2-DG (Fig. 2b)", "result": "strongly induced"}, {"measurement": "ATGL transcript levels", "setting": "ATGL [1]; HepG2, 2-DG treatment", "result": "without changing"}]}
{"smiles": "CC(C)C[C@@H](C=O)NC(=O)[C@H](CC(C)C)NC(=O)[C@H](CC(C)C)NC(=O)OCc1ccccc1", "note": "[MG132] (Cbz-Leu-Leu-Leu-aldehyde)", "values": [{"measurement": "cellular ATGL protein", "setting": "ATGL [2]", "result": "accumulation"}]}
{"smiles": "C[C@H]1CCC/C=C/[C@@H]2C[C@H](O)C[C@H]2[C@H](O)/C=C/C(=O)O1", "note": "[BFA, Brefeldin A]", "values": [{"measurement": "intracellular ATGL levels upon glucose deprivation", "setting": "ATGL [3]", "result": "failed to upregulate"}]}
